Test results as given in patent publication US20260356819A1, “OXOISOINDOLINYL-SUBSTITUTED […] DERIVATIVE AND USE THEREOF” (GLUETACS THERAPEUTICS (SHANGHAI) CO., LTD., priority 2023, published 2026).

Legend:
Type in all cases: cell-based
Settings in all cases: compounds at 50 nM and 500 nM
[1] = biological target: T1, WEE1 (Homo sapiens, UniProt P30291+Q96SW2); assay: Western blot degradation of WEE1 in hPBMCs (24 h)
T1 construct: The supernatant was aspirated as the extracted total cell protein; endogenous in cells; host or cells: human peripheral blood mononuclear cells (hPBMCs)
T1 sequence (P30291 whole entry): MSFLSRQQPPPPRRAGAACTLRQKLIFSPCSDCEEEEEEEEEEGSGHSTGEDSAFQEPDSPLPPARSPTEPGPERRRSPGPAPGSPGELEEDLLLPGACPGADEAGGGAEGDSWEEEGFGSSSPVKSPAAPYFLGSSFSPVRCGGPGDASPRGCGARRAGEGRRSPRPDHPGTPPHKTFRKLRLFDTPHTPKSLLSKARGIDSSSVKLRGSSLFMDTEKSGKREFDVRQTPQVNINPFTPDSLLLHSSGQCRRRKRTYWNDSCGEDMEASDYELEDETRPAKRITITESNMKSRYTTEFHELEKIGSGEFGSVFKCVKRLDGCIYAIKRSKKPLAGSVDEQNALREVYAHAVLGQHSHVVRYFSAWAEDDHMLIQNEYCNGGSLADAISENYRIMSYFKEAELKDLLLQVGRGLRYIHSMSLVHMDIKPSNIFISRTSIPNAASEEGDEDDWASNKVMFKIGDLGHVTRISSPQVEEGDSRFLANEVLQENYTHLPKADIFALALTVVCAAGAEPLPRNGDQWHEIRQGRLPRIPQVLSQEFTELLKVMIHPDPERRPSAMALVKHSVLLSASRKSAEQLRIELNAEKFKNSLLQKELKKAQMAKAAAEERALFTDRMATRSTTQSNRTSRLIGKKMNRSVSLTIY
T1 sequence (Q96SW2 whole entry): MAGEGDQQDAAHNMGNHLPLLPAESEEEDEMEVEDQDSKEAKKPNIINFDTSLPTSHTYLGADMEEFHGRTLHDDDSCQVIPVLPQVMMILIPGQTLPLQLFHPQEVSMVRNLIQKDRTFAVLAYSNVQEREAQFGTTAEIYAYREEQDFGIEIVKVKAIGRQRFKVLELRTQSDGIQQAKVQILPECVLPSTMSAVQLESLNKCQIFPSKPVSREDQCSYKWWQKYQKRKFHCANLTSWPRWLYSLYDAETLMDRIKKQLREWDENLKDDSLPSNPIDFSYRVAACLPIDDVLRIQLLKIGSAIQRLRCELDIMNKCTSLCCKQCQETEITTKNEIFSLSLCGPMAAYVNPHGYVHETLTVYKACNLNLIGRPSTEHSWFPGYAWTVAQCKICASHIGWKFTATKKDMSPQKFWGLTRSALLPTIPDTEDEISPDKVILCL
T1 sequence (Q16531 whole entry partner): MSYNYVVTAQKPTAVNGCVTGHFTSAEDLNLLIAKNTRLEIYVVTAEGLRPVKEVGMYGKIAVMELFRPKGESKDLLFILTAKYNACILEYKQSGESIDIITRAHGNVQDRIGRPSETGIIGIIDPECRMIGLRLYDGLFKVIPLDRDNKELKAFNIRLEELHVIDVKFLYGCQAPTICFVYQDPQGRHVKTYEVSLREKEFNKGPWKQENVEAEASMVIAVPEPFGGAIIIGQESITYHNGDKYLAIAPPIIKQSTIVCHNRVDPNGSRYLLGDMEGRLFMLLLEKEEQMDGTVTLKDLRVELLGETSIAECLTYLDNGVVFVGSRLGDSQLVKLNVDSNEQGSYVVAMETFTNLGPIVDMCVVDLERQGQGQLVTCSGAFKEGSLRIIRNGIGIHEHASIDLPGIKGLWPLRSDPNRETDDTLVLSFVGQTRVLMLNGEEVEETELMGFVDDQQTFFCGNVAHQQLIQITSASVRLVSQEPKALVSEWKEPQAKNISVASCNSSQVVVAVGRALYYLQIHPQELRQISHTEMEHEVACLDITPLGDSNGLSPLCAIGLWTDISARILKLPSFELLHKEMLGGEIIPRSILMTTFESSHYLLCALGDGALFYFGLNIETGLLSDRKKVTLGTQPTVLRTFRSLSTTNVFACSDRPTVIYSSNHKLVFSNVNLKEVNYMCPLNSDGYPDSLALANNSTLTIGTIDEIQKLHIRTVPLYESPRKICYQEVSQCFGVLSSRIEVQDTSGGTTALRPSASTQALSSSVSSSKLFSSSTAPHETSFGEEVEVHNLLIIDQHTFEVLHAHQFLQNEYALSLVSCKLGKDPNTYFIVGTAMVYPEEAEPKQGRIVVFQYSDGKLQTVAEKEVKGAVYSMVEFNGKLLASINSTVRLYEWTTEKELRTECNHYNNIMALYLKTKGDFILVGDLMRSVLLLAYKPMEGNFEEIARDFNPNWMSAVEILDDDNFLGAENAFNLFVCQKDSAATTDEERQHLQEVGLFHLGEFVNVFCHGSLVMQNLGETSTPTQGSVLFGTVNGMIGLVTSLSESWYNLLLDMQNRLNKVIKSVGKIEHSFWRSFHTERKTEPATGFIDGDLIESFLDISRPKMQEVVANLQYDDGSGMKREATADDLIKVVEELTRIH
How it was run: (§1)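 hPBMCs (1×10^6 cells/mL) exposed to compound at 50 nM and 500 nM for 24 h, DMSO as reference. Lysates run on SDS-PAGE and immunoblotted. Band grayscale normalized to internal control gives % protein remaining; DC50 from fitted concentration-response of band intensity versus DMSO.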

[2] = biological target: T2, IKZF1 (Homo sapiens, UniProt Q13422+Q96SW2); assay: Western blot degradation of IKZF1 in hPBMCs (24 h)
T2 construct: The supernatant was aspirated as the extracted total cell protein; endogenous in cells; host or cells: human peripheral blood mononuclear cells (hPBMCs)
How it was run: as §1

[3] = biological target: T3, IKZF2 (Homo sapiens, UniProt Q96SW2+Q9UKS7); assay: Western blot degradation of IKZF2 in hPBMCs (24 h)
T3 construct: The supernatant was aspirated as the extracted total cell protein; endogenous in cells; host or cells: human peripheral blood mononuclear cells (hPBMCs)
T3 sequence (Q9UKS7 whole entry): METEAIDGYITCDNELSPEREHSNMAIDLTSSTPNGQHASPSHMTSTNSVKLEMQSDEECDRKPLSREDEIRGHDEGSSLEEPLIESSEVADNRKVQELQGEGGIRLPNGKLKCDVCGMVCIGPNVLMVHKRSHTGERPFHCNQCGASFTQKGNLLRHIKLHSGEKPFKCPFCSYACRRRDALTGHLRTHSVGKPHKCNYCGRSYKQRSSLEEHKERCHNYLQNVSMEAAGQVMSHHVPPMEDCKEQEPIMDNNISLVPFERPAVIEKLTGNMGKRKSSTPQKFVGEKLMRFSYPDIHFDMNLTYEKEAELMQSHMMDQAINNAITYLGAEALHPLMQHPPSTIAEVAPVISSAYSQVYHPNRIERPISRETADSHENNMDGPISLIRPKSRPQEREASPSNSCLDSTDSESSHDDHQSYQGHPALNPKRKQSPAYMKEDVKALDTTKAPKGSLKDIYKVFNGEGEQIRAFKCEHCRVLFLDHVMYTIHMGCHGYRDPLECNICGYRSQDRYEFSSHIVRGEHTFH
T3 sequence (Q96SW2 whole entry): as the sequence (Q96SW2 whole entry) above
T3 sequence (Q16531 whole entry partner): as the sequence (Q16531 whole entry partner) above
How it was run: as §1

[4] = biological target: T4, IKZF3 (Homo sapiens, UniProt Q96SW2+Q9UKT9); assay: Western blot degradation of IKZF3 in hPBMCs (24 h)
T4 construct: The supernatant was aspirated as the extracted total cell protein; endogenous in cells; host or cells: human peripheral blood mononuclear cells (hPBMCs)
T4 sequence (Q9UKT9 whole entry): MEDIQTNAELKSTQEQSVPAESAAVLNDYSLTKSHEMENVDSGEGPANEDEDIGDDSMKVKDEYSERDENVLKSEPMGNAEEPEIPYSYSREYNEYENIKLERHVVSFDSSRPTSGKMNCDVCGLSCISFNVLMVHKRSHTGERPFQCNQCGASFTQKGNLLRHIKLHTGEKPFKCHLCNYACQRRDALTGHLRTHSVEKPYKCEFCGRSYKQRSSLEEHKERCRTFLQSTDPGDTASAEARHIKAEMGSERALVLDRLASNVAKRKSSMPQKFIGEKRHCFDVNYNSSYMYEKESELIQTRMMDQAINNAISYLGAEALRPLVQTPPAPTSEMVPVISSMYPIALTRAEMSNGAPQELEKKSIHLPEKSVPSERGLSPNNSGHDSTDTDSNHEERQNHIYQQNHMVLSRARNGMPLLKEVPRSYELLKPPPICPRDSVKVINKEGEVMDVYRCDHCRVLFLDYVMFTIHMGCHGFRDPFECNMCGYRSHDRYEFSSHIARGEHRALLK
T4 sequence (Q96SW2 whole entry): as the sequence (Q96SW2 whole entry) above
T4 sequence (Q16531 whole entry partner): as the sequence (Q16531 whole entry partner) above
How it was run: as §1

[5] = biological target: T5, CK1α (Homo sapiens, UniProt P48729+Q96SW2); assay: Western blot degradation of CK1α in hPBMCs (24 h)
T5 construct: The supernatant was aspirated as the extracted total cell protein; endogenous in cells; host or cells: human peripheral blood mononuclear cells (hPBMCs)
T5 sequence (P48729 whole entry): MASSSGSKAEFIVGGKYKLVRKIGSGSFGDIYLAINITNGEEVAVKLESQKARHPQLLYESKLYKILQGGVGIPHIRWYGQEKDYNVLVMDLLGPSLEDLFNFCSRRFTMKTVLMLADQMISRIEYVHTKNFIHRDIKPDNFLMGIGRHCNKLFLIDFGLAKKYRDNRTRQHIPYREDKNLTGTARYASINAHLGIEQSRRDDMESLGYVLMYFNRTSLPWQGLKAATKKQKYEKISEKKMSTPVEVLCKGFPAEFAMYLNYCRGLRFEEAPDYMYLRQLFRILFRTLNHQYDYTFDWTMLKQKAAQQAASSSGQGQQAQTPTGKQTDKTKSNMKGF
T5 sequence (Q96SW2 whole entry): as the sequence (Q96SW2 whole entry) above
T5 sequence (Q16531 whole entry partner): as the sequence (Q16531 whole entry partner) above
How it was run: as §1

[6] = biological target: T6, GSPT1 (Homo sapiens, UniProt P15170+Q96SW2); assay: Western blot degradation of GSPT1 in hPBMCs (24 h)
T6 construct: The supernatant was aspirated as the extracted total cell protein; endogenous in cells; host or cells: human peripheral blood mononuclear cells (hPBMCs)
T6 sequence (P15170 whole entry): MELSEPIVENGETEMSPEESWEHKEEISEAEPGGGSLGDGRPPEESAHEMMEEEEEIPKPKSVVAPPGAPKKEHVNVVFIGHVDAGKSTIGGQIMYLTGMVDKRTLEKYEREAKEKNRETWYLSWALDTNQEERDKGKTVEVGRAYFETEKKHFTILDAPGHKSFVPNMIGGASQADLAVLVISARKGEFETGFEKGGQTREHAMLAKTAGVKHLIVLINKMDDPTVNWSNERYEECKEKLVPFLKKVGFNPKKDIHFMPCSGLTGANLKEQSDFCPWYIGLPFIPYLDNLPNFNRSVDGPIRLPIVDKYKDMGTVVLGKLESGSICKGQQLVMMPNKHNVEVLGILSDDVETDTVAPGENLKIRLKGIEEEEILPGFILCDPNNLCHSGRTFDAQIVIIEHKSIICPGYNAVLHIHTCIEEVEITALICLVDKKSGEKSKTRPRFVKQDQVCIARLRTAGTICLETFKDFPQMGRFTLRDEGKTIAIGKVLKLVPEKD
T6 sequence (Q96SW2 whole entry): as the sequence (Q96SW2 whole entry) above
T6 sequence (Q16531 whole entry partner): as the sequence (Q16531 whole entry partner) above
How it was run: as §1

Row | SMILES | WEE1 substrate protein remaining % [1] | IKZF1 substrate protein remaining % [2] | IKZF2 substrate protein remaining % [3] | IKZF3 substrate protein remaining % [4] | CK1α substrate protein remaining % [5] | GSPT1 substrate protein remaining % [6]
1 | O=C1CCN(N2Cc3cc(CN4CCN(C(c5ccc(Cl)cc5)c5ccc(Cl)cc5)CC4)ccc3C2=O)C(=O)N1 [GT-04895, 1-(5-((4-(bis(4-chlorophenyl)methyl)piperazin-1-yl)methyl)-1-oxoisoindolin-2-yl)dihydropyrimidine-2,4(1H,3H)-dione] | B (80%< substrate protein remaining % ≤100%) | A (0% ≤ substrate protein remaining % ≤80%) | A (0% ≤ substrate protein remaining % ≤80%) | B (80%< substrate protein remaining % ≤100%) | B (80%< substrate protein remaining % ≤100%) | A (0% ≤ substrate protein remaining % ≤80%)
2 | O=C1CCN(N2C(=O)c3ccc(CN4C[C@H]5C[C@@H]4CN5c4cccc(Cl)c4Cl)cc3C2=O)C(=O)N1 [GT-07435, 5-(((1R,4R)-5-(2,3-dichlorophenyl)-2,5-diazabicyclo[2.2.1]heptan-2-yl)methyl)-2-(2,4-dioxotetrahydropyrimidin-1(2H)-yl)isoindoline-1,3-dione] | B (80%< substrate protein remaining % ≤100%) | B (80%< substrate protein remaining % ≤100%) | B (80%< substrate protein remaining % ≤100%) | B (80%< substrate protein remaining % ≤100%) | A (0% ≤ substrate protein remaining % ≤80%) | B (80%< substrate protein remaining % ≤100%)
3 | CC1(C)CCC(CN2CC3CC(C2)N3Cc2ccc3c(c2)C(=O)N(N2CCC(=O)NC2=O)C3=O)=C(c2ccc(Cl)cc2)C1 [GT-06457, 5-((3-((4′-chloro-5,5-dimethyl-3,4,5,6-tetrahydro-[1,1′-biphenyl]-2-yl)methyl)-3,6-diazabicyclo[3.1.1]heptan-6-yl)methyl)-2-(2,4-dioxotetrahydropyrimidin-1(2H)-yl)isoindoline-1,3-dione] | A (0% ≤ substrate protein remaining % ≤80%) | A (0% ≤ substrate protein remaining % ≤80%) | A (0% ≤ substrate protein remaining % ≤80%) | A (0% ≤ substrate protein remaining % ≤80%) | A (0% ≤ substrate protein remaining % ≤80%) | A (0% ≤ substrate protein remaining % ≤80%)
4 | O=C1CCN(N2Cc3cc(CN4CCN(c5ncnc6scc(-c7ccccc7)c56)CC4)ccc3C2=O)C(=O)N1 [GT-08065, 1-(1-oxo-5-((4-(5-phenylthieno[2,3-d]pyrimidin-4-yl)piperazin-1-yl)methyl)isoindolin-2-yl)dihydropyrimidine-2,4(1H,3H)-dione] | B (80%< substrate protein remaining % ≤100%) | B (80%< substrate protein remaining % ≤100%) | A (0% ≤ substrate protein remaining % ≤80%) | B (80%< substrate protein remaining % ≤100%) | B (80%< substrate protein remaining % ≤100%) | B (80%< substrate protein remaining % ≤100%)
5 | O=C1CCN(N2Cc3cc(CN4CCN(c5c(Cl)ccnc5Cl)CC4)ccc3C2=O)C(=O)N1 [GT-06974, 1-(5-((4-(2,4-dichloropyridin-3-yl)piperazin-1-yl)methyl)-1-oxoisoindolin-2-yl)dihydropyrimidine-2,4(1H,3H)-dione] | A (0% ≤ substrate protein remaining % ≤80%) | A (0% ≤ substrate protein remaining % ≤80%) | B (80%< substrate protein remaining % ≤100%) | A (0% ≤ substrate protein remaining % ≤80%) | B (80%< substrate protein remaining % ≤100%) | B (80%< substrate protein remaining % ≤100%)
6 | O=C1CCN(N2C(=O)c3ccc(CN4CC=C(c5ccnc(Cl)c5Cl)CC4)cc3C2=O)C(=O)N1 [GT-07440, 5-((2′,3′-dichloro-3,6-dihydro-[4,4′-bipyridin]-1(2H)-yl)methyl)-2-(2,4-dioxotetrahydropyrimidin-1(2H)-yl)isoindoline-1,3-dione] | A (0% ≤ substrate protein remaining % ≤80%) | B (80%< substrate protein remaining % ≤100%) | B (80%< substrate protein remaining % ≤100%) | B (80%< substrate protein remaining % ≤100%) | A (0% ≤ substrate protein remaining % ≤80%) | A (0% ≤ substrate protein remaining % ≤80%)
7 | O=C1CCN(N2C(=O)c3ccc(CN4CC5CCC(C4)N5c4cccc(Cl)c4Cl)cc3C2=O)C(=O)N1 [GT-07437, 5-((8-(2,3-dichlorophenyl)-3,8-diazabicyclo[3.2.1]octan-3-yl)methyl)-2-(2,4-dioxotetrahydropyrimidin-1(2H)-yl)isoindoline-1,3-dione] | A (0% ≤ substrate protein remaining % ≤80%) | B (80%< substrate protein remaining % ≤100%) | B (80%< substrate protein remaining % ≤100%) | B (80%< substrate protein remaining % ≤100%) | A (0% ≤ substrate protein remaining % ≤80%) | A (0% ≤ substrate protein remaining % ≤80%)
8 | O=C1CCN(N2Cc3cc(CN4CCC(c5ncnc6sc7c(c56)CCCC7)CC4)ccc3C2=O)C(=O)N1 [GT-08112, 1-(1-oxo-5-((4-(5,6,7,8-tetrahydrobenzo[4,5]thieno[2,3-d]pyrimidin-4-yl)piperidin-1-yl)methyl)isoindolin-2-yl)dihydropyrimidine-2,4(1H,3H)-dione] | B (80%< substrate protein remaining % ≤100%) | B (80%< substrate protein remaining % ≤100%) | B (80%< substrate protein remaining % ≤100%) | B (80%< substrate protein remaining % ≤100%) | B (80%< substrate protein remaining % ≤100%) | A (0% ≤ substrate protein remaining % ≤80%)
9 | O=C1CCN(N2C(=O)c3ccc(CN4CCn5c(nnc5C(F)(F)F)C4)cc3C2=O)C(=O)N1 [GT-05253, 2-(2,4-dioxotetrahydropyrimidin-1(2H)-yl)-5-((3-(trifluoromethyl)-5,6-dihydro-[1,2,4]triazolo[4,3-a]pyrazin-7 (8H)-yl)methyl)isoindoline-1,3-dione] | B (80%< substrate protein remaining % ≤100%) | B (80%< substrate protein remaining % ≤100%) | B (80%< substrate protein remaining % ≤100%) | B (80%< substrate protein remaining % ≤100%) | B (80%< substrate protein remaining % ≤100%) | A (0% ≤ substrate protein remaining % ≤80%)
10 | CC1(C)CCC(CN2CC3CC2CN3Cc2ccc3c(c2)CN(N2CCC(=O)NC2=O)C3=O)=C(c2ccc(Cl)cc2)C1 (stereo not drawn) [GT-07329, 1-(5-((5-((4′-chloro-5,5-dimethyl-3,4,5,6-tetrahydro-[1,1′-biphenyl]-2-yl)methyl)-2,5-diazabicyclo[2.2.1]heptan-2-yl)methyl)-1-oxoisoindolin-2-yl)dihydropyrimidine-2,4(1H,3H)-dione] | A (0% ≤ substrate protein remaining % ≤80%) | B (80%< substrate protein remaining % ≤100%) | B (80%< substrate protein remaining % ≤100%) | B (80%< substrate protein remaining % ≤100%) | B (80%< substrate protein remaining % ≤100%) | A (0% ≤ substrate protein remaining % ≤80%)
11 | O=C1CCN(N2Cc3cc(CN4CCC(C5CCOc6cc(F)ccc65)CC4)ccc3C2=O)C(=O)N1 (stereo not drawn) [GT-07587, 1-(5-((4-(7-fluorochroman-4-yl)piperidin-1-yl)methyl)-1-oxoisoindolin-2-yl)dihydropyrimidine-2,4(1H,3H)-dione] | A (0% ≤ substrate protein remaining % ≤80%) | A (0% ≤ substrate protein remaining % ≤80%) | B (80%< substrate protein remaining % ≤100%) | B (80%< substrate protein remaining % ≤100%) | B (80%< substrate protein remaining % ≤100%) | A (0% ≤ substrate protein remaining % ≤80%)
12 | O=C1CCN(N2C(=O)c3ccc(CN4CCC(c5cccc(Br)c5)CC4)cc3C2=O)C(=O)N1 [GT-06804, 5-((4-(3-bromophenyl)piperidin-1-yl)methyl)-2-(2,4-dioxotetrahydropyrimidin-1(2H)-yl)isoindoline-1,3-dione] | B (80%< substrate protein remaining % ≤100%) | B (80%< substrate protein remaining % ≤100%) | B (80%< substrate protein remaining % ≤100%) | B (80%< substrate protein remaining % ≤100%) | A (0% ≤ substrate protein remaining % ≤80%) | B (80%< substrate protein remaining % ≤100%)
